Legend:
Rac1 [1] = assay: Rac1 activation assay (G-LISA); assay type: cell-based; conditions: cells incubated 2 minutes at 1 and 10 μg/mL
Procedure: Cell cultures were incubated with each tested compound for 2 minutes at concentrations of 1 and 10 μg/mL, after which the cells were tested for Rac1 activation using a G-LISA activation assay. The cells were lysed and the lysates introduced into wells containing Rac-GTP-binding protein, then sequentially incubated with anti-Rac1 antibody and a horseradish peroxidase-linked secondary antibody. The amount of horseradish peroxidase was then quantitated to evaluate the Rac1 activation potency of each compound studied.

Rac1 [2] = assay: Rac1 signaling in HSCs (BM KSL cells expressing Rac1GTP); assay type: cell-based
Procedure: (§1) A) CFU-GEMMs produced by TSF media vs. TSF+GJ001 (p=0.001). B) Percentage of BM KSL cells expressing Rac1GTP (p=0.008). C) Survival of mice irradiated with 750 cGy followed by treatment with DJ001 or vehicle (p=0.0007). D) % BM KSL cells (blue) and % ckit^+sca-1^−lin^− progenitors (gray) at day +21 in irradiated mice.
Intracellular flow cytometric analysis was performed on irradiated (300 cGy) or non-irradiated, sorted KSL cells after treatment with 1 μg/mL DJ001 or control (equal volumes of DMSO) for 24 hours. At 24 hours after irradiation, cells were fixed with 4% PFA for 10 min, followed by permeabilization using 0.25% saponin in PBS. Cells were washed again and stained with antibody at the recommended concentrations for 30 minutes at room temperature. Intracellular antibodies and phospho-flow antibodies used were: FITC-conjugated anti-BCL-XL (Abcam #ab26148), active RAC1-GTP antibody (NewEast Biosciences #26903), and anti-PAK1 (phospho S144)+PAK2 (phospho S141)+PAK3 (phospho S154) antibody (Abcam #ab40795).

irradiated mice = assay: Survival and HSC regeneration of irradiated mice; assay type: in vivo; conditions: for Survival of irradiated mice: lethal dose irradiation (750 cGy)
Text: as §1
10 week old female C57BL/6 mice were irradiated with 750 cGy TBI, which is lethal for approximately 50% of C57BL/6 mice by day +30 (LD50/30), using a Shepherd Cesium-137 irradiator. Twenty four hours post-irradiation, mice were administered daily subcutaneous injections of 5 mg/kg DJ001 (or DJ009) or vehicle in a volume of 100 μL for 10 days. DJ001 injections were prepared in PBS, 0.5% Tween 80, and 10% DMSO. Corresponding vehicle injections contained PBS, 10% DMSO and 0.5% Tween 80. PB complete blood counts were measured using a Hemavet 950 instrument (Drew Scientific) at day +10 post-irradiation. For hematopoietic analysis, BM cells were collected at day +10 post-irradiation. To study whether DJ001 increased survival rates through activation of RAC signaling, the RAC inhibitor, EHT1864 (Selleckchem), was dissolved in PBS and administered intraperitoneally, 40 mg/kg every other day, to 750 cGy irradiated mice until day +10. For DJ009 studies, ten week old female C57BL/6 mice were irradiated with 550 cGy TBI and then given daily subcutaneous injections of 5 mg/kg of DJ009 or vehicle in a volume of 100 μL for 3 days. DJ009 injections were prepared in PBS, 0.5% Tween 80, and 10% DMSO. Vehicle injections contained 10% DMSO and 0.5% Tween 80. At day +3 post 550 cGy irradiation, we collected PB and BM cells for CBCs and hematopoietic analysis. Exemplary results of this assay are depicted in FIG. 8 and FIG. 17.

PTPRS = biological target: T1, PTPRS (Homo sapiens, UniProt Q13332); assay: In vitro phosphatase assay (modified Malachite Green Assay); assay type: biochemical; conditions: substrate titration of PTPσ; Vmax inhibited, Km constant
T1 construct: The two interacellular catalytic domains (D1D2) of PTPRS were cloned into a pET28a vector; made in house; host or cells: E. coli BL21
T1 sequence (Q13332 1304-1948 limits assumed): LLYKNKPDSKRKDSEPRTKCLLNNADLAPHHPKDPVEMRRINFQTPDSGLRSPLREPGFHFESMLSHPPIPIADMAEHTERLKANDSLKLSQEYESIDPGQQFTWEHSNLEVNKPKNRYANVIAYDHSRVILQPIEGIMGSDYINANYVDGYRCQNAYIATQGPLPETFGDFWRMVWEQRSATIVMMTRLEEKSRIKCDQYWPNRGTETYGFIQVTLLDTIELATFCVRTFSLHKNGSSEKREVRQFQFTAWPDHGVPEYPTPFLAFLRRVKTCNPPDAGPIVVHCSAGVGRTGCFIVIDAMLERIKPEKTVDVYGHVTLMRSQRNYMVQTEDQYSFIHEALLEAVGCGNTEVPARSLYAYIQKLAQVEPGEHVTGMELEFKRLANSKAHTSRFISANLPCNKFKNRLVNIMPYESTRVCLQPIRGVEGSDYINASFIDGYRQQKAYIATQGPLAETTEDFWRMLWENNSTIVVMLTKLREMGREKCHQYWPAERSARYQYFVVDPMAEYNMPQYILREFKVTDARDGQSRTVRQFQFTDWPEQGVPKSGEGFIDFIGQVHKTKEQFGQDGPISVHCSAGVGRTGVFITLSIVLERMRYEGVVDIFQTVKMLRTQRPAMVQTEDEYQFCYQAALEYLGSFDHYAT
Procedure: The two interacellular catalytic domains (D1D2) of PTPRS were cloned into a pET28a vector and overexpressed in E. coli BL21 and purified as described in Jeon T J, et al. Structure of the Catalytic Domain of Protein Tyrosine Phosphatase Sigma in the Sulfenic Acid Form. Molecules and Cells. 2013; 36(1):55-61. doi:10.1007/s10059-013-0033-x. Enzymatic activity of PTPRS was assayed using a modified version of the Malachite Green Assay (described in Lorenz U. Protein Tyrosine Phosphatase Assays. Current protocols in immunology/edited by John E Coligan. [et al]. 2011; CHAPTER: Unit-11.7. doi:10.1002/0471142735.im1107s93) and the Tyrosine Phosphatase Assay Kit (Promega Coorperation). Unless stated otherwise, standard assays were carried out using 50 nM PTPRS protein in 1× Buffer (10 mM Tris, 5 mM MgCl2, 10 mM NaCl, 0.02% Tween) and Tyr Phosphopeptide as substrate (100 uM for FIG. 1 and 50-1200 uM in FIG. 2). […]
For IC50 determination, rates normalized relative to uninhibited controls (DMSO) were plotted against compound concentration and fitted using a four-parameter nonlinear regression curve fit ((y=[(A−D)(1+{xC−1}B)−1]+D), (Prism 6.0, Graphpad Software). For mechanism studies and determination of the enyzme's Km and Vmax, data were analyzed using a nonlinear regression fit according to classical Mechaelis-Menten kinetics model Y=Vmax*X/(Km+X) (Prism 6.0, Graphpad Software).

[3] = test system: hematopoietic colony formation; assay: Hematopoietic colony formation (CFC assay); assay type: cell-based
Procedure: CFC assays (colony-forming unit-granulocyte monocyte (CFU-GM), burst-forming unit-erythroid (BFU-E), and colony-forming unit-granulocyte erythroid monocyte megakaryocyte (CFU-GEMM) were performed using MethoCult GF M3434 (Stemcell Technologies), as we have previously described^1,5. For all in vitro assays, BM CD34^−KSL cells, KSL cells, and Lin cells were cultured in TSF media (IMDM, 10% FBS, 1% pen-strep, 20 ng/mL recombinant mouse Thrombopoietin (TPO), 125 ng/mL recombinant mouse Stem Cell Factor (SCF), 50 ng/mL recombinant mouse Flt3 ligand) and treated as described. Recombinant mouse SCF, Flt-3 ligand, and TPO were purchased from R&D Systems. For competitive repopulation assays, BM cells were isolated from donor 10-12 week old female CD45.2^+ mice. Recipient 10 week old female CD45.1^+ B6.SJL mice were irradiated with 950 cGy TBI using a Cs137 irradiator, and donor BM cells were administered via tail vein injection along with a competing dose of 1×10^5 non-irradiated host BM cells. Multilineage donor hematopoietic cell engraftment was measured in the PB by flow cytometry.

CCCCN/C=C\C(=O)c1ccccc1 [DJ017]
Rac1 Activation (Rac1 [1]): no

CC(C)(C)[Si](C)(C)Oc1cccc(N/C=C\C(=O)c2ccccc2)c1 [DJ014]
Rac1 Activation (Rac1 [1]): yes

CC(C)(C)N/C=C\C(=O)c1ccccc1 [DJ019]
Rac1 Activation (Rac1 [1]): no

O=C(/C=C\Nc1cccc(-c2ccccc2)c1)c1ccccc1 [DJ007]
Rac1 Activation (Rac1 [1]): no

O=C(/C=C\Nc1ccccc1)c1ccccc1 [DJ013]
Rac1 Activation (Rac1 [1]): yes

O=C(/C=C\Nc1cccc(F)c1)c1ccccc1 [DJ002]
Rac1 Activation (Rac1 [1]): no

COc1cc(N/C=C\C(=O)c2ccccc2)cc(OC)c1 [DJ012]
Rac1 Activation (Rac1 [1]): yes

CN(C)S(=O)(=O)c1cccc(N/C=C\C(=O)c2ccccc2)c1 [DJ016]
Rac1 Activation (Rac1 [1]): no

O=C(/C=C\Nc1cccc([N+](=O)[O-])c1)c1ccccc1 [DJ001, (Z)-3-((3-nitrophenyl)amino)-1-phenylprop-2-en-1-one]
Rac1 Activation (Rac1 [1]): yes
Rac1 signaling in HSCs (Rac1 [2]): activates Rac1 signaling
HSC regeneration in irradiated mice (irradiated mice; irradiated mice): accelerates HSC regeneration
Survival of irradiated mice (irradiated mice): dramatically increases mice survival
Mechanism of inhibition (PTPRS): classical noncompetitive inhibitor

Cc1cccc(N/C=C\C(=O)c2ccccc2)c1 [DJ004]
Rac1 Activation (Rac1 [1]): yes

CC(=O)c1cccc(N/C=C\C(=O)c2ccccc2)c1 [DJ006]
Rac1 Activation (Rac1 [1]): no

O=C(/C=C\NCc1ccco1)c1ccccc1 [DJ018]
Rac1 Activation (Rac1 [1]): no

Cc1cc(C)cc(N/C=C\C(=O)c2ccccc2)c1 [DJ011]
Rac1 Activation (Rac1 [1]): yes

O=C(/C=C\Nc1cccc(O)c1)c1ccccc1 [DJ015]
Rac1 Activation (Rac1 [1]): yes

CN(C)c1cccc(N/C=C\C(=O)c2ccccc2)c1 [DJ008]
Rac1 Activation (Rac1 [1]): no

COc1cccc(N/C=C\C(=O)c2ccccc2)c1 [DJ005]
Rac1 Activation (Rac1 [1]): no

O=C(/C=C\Nc1cc(F)cc(F)c1)c1ccccc1 [DJ009, (Z)-3-((3,5-difluorophenyl)amino)-1-phenylprop-2-en-1-one]
Rac1 Activation (Rac1 [1]): yes

O=C(/C=C\Nc1cccc(C(F)(F)F)c1)c1ccccc1 [DJ003]
Rac1 Activation (Rac1 [1]): yes
Survival of irradiated mice (irradiated mice): improves survival of irradiated mice
Hematopoietic colony formation [3]: increases hematopoietic colony formation

From US20210188763A1, “COMPOUNDS AND METHODS FOR HEMATOPOIETIC REGENERATION” (The Regents of the University of California, priority 2017, published 2021)
